The record followed here is ChEMBL document CHEMBL5465560, “Selectivity Literature for EUbOPEN Chemogenomic Library” (2024).

In test [1] the target is Mitogen-activated protein kinase kinase kinase 10 (Homo sapiens) (UniProt Q02779). Conditions: at 10 µM.
Test [2] concerns the target RAC-beta serine/threonine-protein kinase (Homo sapiens) (UniProt P31751). The test is described as follows: Selectivity interaction (Ambit KINOMEscan and KiNATiv profiling in Jurkat cells) EUB0000090b AKT2. The format is cell-based. Conditions: at 1 µM.
Test [3] deals with T1, Serine/threonine-protein kinase BRSK2 (Homo sapiens) (UniProt Q8IWQ3).
T1 sequence (whole entry): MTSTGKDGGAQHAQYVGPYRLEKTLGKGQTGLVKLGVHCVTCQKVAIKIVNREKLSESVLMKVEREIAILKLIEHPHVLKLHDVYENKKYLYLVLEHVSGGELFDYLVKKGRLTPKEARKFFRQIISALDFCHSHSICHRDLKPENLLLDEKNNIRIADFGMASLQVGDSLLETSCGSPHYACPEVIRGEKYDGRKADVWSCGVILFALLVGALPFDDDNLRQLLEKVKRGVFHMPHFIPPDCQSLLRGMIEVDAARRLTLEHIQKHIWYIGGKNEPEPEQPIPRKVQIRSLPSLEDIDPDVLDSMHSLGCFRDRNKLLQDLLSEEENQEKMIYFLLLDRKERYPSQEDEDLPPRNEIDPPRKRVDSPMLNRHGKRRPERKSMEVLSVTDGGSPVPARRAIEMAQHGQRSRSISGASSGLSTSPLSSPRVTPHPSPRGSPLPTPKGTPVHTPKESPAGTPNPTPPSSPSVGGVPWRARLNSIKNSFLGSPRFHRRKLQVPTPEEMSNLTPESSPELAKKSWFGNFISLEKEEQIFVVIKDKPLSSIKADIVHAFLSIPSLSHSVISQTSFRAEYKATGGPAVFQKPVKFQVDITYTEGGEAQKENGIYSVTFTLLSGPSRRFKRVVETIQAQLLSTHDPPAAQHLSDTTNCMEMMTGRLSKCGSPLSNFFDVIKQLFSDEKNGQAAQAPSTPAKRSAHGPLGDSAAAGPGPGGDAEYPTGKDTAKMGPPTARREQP
Kind of test: Selectivity interaction (Ambit KINOMEscan and KiNATiv profiling in Jurkat cells) EUB0000090b BRSK2. The format is cell-based. Conditions: at 1 µM.

Test [4] concerns the target Mitogen-activated protein kinase kinase kinase 11 (Homo sapiens) (UniProt Q16584). The test is described as follows: Selectivity interaction (KinomeScan (DiscoverX)) EUB0001079a MAP3K11. Conditions: at 1 µM.
Test [5] addresses Homeodomain-interacting protein kinase 2 (Homo sapiens, UniProt Q9H2X6). Kind of test: Selectivity interaction (KinomeScan (DiscoverX)) EUB0000655a HIPK2. The settings on record: at 10 µM.
In test [6] the target is T2, Ephrin type-A receptor 6 (Homo sapiens) (UniProt Q9UF33).
T2 sequence (whole entry): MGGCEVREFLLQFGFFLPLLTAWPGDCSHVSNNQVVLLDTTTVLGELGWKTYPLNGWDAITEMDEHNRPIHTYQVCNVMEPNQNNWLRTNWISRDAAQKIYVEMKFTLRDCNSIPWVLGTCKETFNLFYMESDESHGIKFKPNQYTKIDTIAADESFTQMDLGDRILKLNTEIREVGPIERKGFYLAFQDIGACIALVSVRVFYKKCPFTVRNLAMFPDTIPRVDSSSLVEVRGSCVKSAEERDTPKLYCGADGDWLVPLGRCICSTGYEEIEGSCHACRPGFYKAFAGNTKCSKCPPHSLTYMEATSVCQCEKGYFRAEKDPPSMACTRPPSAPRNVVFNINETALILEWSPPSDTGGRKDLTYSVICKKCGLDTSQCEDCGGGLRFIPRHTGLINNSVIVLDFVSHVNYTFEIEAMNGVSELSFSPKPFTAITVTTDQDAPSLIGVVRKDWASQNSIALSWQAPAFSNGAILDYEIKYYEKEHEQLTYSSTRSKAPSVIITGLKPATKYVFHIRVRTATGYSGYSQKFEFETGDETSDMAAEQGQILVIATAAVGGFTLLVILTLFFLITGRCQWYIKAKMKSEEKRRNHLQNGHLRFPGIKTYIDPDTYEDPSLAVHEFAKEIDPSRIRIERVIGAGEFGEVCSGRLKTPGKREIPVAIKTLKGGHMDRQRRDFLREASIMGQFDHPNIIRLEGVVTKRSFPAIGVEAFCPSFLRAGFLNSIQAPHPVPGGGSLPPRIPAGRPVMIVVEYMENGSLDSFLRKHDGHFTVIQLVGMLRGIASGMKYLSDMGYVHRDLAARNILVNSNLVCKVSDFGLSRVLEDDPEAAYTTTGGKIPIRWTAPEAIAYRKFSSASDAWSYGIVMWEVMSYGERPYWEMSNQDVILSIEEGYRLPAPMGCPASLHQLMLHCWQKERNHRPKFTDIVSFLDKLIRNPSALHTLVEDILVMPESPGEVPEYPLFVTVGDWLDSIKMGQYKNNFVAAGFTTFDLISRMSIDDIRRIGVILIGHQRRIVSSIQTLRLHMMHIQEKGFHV
The test is described as follows: Selectivity interaction (KinomeScan (DiscoverX)) EUB0000655a EPHA6. Conditions: at 10 µM.

Test [7] concerns the target Serine/threonine-protein kinase WNK2 (Homo sapiens) (UniProt Q9Y3S1). Kind of test: Selectivity interaction (KinomeScan (DiscoverX)) EUB0000695a WNK2. Conditions: at 100 nM.
Test [8] has as its target Ribosomal protein S6 kinase alpha-2 (Homo sapiens) (UniProt Q15349). The test is described as follows: Selectivity interaction (KinomeScan (DiscoverX)) EUB0000045b RPS6KA2. The settings on record: at 1 µM.
Test [9] concerns the target cAMP-dependent protein kinase catalytic subunit alpha (Homo sapiens, UniProt P17612). The test is described as follows: Selectivity interaction (KinomeScan (DiscoverX)) EUB0000045b PRKACA.
The target of test [10] is 5'-AMP-activated protein kinase catalytic subunit alpha-1 (Homo sapiens, UniProt Q13131). The test is described as follows: Selectivity interaction (ActivX KiNativ screen (kinase selectivity in THP-1 cell lysates)) EUB0000639a PRKAA1. The test is classed as subcellular. Conditions: lysate, at 5 µM.
Test [11] addresses Serine/threonine-protein kinase pim-1 (Homo sapiens, UniProt P11309). Conditions: at 10 µM.
Test [12] concerns the target Serine/threonine-protein kinase MARK2 (Homo sapiens) (UniProt Q7KZI7). The test is described as follows: Selectivity interaction (KinomeScan (DiscoverX)) EUB0001619a MARK2. The settings on record: at 1 µM.
Test [13] has as its target Proto-oncogene tyrosine-protein kinase Src (Homo sapiens, UniProt P12931). The test is described as follows: Selectivity interaction (ActivX KiNativ screen (ex vivo kinase selectivity in human PBMCs)) EUB0001619a SRC. The format is cell-based. Conditions: PBMC, at 1 µM.
The target of test [14] is Fibroblast growth factor receptor 1 (Homo sapiens, UniProt P11362). The test is described as follows: Selectivity interaction (KinomeScan (DiscoverX)) EUB0001619a FGFR1. Conditions: at 1 µM.
Test [15] has as its target 1-phosphatidylinositol 3-phosphate 5-kinase (Homo sapiens) (UniProt Q9Y2I7). Kind of test: Selectivity interaction (Kinase panel (KiNativ target engagement assay in Jurkat cells)) EUB0001635a PIKFYVE. The format is cell-based. Conditions: Selectivity number of off-targets 0.0, Selectivity number of targets 233.0, Source Knowledge https://www.sciencedirect.com/science/article/pii/S2451945619300674?via%3Dihub, at 1 µM.

Sequence of RAC-beta serine/threonine-protein kinase (Homo sapiens) (P31751 whole entry): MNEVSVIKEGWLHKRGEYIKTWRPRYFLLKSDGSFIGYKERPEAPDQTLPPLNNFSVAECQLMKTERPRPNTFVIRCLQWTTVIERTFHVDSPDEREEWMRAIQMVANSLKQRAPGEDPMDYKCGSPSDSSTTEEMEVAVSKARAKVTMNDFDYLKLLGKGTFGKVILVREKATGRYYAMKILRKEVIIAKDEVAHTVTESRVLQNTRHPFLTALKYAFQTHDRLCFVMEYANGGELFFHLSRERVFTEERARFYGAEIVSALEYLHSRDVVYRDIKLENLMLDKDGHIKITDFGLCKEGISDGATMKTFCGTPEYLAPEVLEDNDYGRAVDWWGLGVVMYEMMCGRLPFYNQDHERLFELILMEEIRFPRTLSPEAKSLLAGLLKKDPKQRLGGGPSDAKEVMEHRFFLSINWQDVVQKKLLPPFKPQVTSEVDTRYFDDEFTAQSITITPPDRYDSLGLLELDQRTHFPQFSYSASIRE
Sequence of Homeodomain-interacting protein kinase 2 (Q9H2X6 whole entry, looked up): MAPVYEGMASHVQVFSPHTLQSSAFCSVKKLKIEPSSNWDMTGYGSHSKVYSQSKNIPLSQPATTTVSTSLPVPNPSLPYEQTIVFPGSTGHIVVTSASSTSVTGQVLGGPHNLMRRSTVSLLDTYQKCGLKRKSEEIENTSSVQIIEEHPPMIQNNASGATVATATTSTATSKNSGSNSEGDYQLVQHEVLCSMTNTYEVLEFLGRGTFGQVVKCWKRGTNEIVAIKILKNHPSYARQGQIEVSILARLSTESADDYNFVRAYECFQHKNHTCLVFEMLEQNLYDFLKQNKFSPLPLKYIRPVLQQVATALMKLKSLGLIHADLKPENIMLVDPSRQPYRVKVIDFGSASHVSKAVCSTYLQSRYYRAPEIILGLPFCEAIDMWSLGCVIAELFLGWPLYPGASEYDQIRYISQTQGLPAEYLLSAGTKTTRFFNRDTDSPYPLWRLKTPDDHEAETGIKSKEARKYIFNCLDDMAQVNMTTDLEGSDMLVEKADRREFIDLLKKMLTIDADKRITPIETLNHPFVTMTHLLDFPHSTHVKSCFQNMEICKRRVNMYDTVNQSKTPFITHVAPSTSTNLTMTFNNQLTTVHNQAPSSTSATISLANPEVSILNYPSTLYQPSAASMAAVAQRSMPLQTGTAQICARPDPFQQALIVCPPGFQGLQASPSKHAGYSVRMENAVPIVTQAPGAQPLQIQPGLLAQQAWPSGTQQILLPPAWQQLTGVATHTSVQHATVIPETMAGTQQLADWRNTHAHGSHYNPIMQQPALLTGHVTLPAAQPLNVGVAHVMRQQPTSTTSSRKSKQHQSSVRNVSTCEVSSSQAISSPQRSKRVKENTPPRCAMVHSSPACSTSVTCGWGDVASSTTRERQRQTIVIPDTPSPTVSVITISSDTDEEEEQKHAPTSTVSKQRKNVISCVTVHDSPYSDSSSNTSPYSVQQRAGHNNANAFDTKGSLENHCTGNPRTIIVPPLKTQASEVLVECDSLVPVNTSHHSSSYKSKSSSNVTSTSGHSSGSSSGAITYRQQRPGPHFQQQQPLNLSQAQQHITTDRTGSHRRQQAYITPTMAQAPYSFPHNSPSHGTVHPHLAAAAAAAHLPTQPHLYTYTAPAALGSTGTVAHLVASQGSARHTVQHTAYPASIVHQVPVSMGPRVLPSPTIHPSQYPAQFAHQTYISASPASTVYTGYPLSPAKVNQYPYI
Sequence of Serine/threonine-protein kinase WNK2 (Homo sapiens) (Q9Y3S1 whole entry): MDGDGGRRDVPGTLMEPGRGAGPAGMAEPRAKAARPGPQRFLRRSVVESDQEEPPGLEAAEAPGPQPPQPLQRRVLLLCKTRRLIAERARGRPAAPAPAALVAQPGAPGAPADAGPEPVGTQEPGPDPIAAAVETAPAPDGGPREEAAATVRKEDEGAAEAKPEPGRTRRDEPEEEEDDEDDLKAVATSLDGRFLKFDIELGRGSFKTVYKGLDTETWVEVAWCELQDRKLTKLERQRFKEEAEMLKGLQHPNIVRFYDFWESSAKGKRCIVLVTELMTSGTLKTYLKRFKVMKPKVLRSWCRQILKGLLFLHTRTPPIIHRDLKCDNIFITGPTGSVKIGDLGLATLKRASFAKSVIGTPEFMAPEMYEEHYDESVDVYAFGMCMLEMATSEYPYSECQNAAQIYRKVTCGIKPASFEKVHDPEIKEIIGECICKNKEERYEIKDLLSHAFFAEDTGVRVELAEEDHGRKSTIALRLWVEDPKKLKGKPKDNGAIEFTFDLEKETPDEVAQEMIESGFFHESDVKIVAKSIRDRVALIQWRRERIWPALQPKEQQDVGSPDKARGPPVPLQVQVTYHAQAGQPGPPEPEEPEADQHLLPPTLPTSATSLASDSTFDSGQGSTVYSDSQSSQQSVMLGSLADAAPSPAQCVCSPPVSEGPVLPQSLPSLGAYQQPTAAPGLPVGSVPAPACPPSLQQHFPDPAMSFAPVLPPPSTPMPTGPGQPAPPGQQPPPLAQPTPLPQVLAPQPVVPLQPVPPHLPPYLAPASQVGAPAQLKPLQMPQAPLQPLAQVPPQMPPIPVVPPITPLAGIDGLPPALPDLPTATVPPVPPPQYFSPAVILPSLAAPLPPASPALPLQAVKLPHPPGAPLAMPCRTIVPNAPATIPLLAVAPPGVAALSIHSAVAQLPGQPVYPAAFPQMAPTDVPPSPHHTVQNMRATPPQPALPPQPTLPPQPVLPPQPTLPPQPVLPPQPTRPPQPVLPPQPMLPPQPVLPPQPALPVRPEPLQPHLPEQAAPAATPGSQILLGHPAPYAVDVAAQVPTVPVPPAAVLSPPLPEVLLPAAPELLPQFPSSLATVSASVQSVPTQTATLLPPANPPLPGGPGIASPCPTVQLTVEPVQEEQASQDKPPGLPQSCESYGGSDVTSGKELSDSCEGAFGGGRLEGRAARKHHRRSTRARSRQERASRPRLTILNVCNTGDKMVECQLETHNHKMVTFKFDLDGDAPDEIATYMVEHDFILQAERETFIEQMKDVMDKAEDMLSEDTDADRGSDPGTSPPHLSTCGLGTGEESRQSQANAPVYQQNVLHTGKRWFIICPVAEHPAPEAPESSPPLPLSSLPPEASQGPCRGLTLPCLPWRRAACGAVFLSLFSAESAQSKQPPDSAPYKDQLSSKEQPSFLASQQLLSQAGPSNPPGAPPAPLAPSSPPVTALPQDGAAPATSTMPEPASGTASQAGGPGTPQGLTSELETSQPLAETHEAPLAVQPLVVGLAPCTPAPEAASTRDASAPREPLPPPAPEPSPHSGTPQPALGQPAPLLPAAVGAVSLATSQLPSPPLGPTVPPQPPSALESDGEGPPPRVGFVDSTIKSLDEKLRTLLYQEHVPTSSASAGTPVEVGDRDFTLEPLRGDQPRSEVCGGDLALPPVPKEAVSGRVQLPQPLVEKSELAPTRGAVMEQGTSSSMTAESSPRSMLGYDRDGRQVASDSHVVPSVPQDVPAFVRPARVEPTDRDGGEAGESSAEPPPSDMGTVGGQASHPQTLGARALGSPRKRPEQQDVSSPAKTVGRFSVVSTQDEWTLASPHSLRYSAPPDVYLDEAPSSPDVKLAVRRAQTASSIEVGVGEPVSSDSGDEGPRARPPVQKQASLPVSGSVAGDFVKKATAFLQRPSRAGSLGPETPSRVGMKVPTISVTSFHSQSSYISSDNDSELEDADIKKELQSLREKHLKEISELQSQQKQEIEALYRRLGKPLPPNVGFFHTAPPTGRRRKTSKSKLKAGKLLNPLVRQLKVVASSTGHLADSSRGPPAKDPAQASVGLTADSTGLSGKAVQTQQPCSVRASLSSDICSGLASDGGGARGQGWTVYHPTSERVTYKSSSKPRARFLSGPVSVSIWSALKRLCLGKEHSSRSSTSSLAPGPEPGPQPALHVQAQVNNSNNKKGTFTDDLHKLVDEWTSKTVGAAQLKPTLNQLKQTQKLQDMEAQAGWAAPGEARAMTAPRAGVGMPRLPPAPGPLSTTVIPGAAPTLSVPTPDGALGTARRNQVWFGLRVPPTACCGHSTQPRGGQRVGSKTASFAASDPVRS
Sequence of Ribosomal protein S6 kinase alpha-2 (Homo sapiens) (Q15349 whole entry): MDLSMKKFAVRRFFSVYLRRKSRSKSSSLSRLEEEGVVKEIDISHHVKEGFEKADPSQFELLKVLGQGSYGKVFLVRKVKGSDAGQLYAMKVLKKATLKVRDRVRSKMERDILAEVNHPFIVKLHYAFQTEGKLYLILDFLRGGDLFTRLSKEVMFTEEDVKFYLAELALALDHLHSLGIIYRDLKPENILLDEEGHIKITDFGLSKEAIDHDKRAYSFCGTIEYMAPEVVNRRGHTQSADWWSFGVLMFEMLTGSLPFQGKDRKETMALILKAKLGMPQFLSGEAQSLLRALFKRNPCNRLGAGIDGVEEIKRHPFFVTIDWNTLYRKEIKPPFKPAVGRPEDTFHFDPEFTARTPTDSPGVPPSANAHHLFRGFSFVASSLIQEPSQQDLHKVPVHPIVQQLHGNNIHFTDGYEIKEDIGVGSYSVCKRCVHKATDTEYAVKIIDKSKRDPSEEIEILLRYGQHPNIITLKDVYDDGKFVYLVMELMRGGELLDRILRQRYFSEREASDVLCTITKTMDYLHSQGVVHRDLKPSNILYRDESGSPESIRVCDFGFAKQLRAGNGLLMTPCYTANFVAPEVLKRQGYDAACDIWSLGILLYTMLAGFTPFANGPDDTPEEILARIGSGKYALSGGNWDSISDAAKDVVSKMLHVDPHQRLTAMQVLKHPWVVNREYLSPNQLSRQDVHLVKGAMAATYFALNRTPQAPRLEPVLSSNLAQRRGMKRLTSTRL
Sequence of Serine/threonine-protein kinase pim-1 (P11309 whole entry, looked up): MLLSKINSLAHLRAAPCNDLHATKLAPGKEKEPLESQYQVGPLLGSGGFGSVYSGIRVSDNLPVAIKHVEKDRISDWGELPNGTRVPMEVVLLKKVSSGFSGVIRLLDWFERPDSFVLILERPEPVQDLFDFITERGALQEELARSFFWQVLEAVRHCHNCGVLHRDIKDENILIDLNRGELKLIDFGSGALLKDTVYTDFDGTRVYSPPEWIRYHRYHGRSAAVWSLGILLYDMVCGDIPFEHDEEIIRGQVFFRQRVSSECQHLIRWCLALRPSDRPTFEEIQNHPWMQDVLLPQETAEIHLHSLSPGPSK

Regarding `Cc1cc([C@@H](C)Nc2ccccc2C(=O)O)c2nc(N3CCOCC3)cc(=O)n2c1` [AZD-6482], the % of control in test [1] was found to be 96%.
Consider `CN(C)C/C=C/C(=O)Nc1ccc(C(=O)N2CCCC(Nc3ncc(Cl)c(-c4c[nH]c5ccccc45)n3)C2)cc1` (stereo unspecified), for which the % of control is 80% in test [2] and 100% in test [3].
`Nc1cnc(N2CCc3cc(S(=O)(=O)Nc4c(F)cc(Cl)cc4F)cc(N4CCCC4=O)c32)nc1` [TP-020n] had a % of control in [4] of 100%.
Regarding `CN(C)CCOc1ccc(-c2nc(-c3ccncc3)c(-c3ccc4c(c3)CC/C4=N\O)[nH]2)cc1`, the results for the % of control in test [5] and in [6] were 19% and 88%, respectively.
In the case of `Cc1cc(F)c(C(=O)Nc2cccc(-c3nncn3C(C)C)n2)cc1-n1cnc(C2CC2)c1`, the % of control in test [7] was determined as 78%.
In the case of `C=CC(=O)Nc1cc(-n2c(=O)ccc3cnc4ccc(-c5ccc(NS(C)(=O)=O)cc5)cc4c32)ccc1C`, the figures for the % of control in test [8], in [9] (at 1 µM) and in [9] (at 10 µM) were 90%, 83% and 100%, respectively.
In the case of `CC[C@@H]1[C@H](F)C(=O)N[C@@H]1COc1nccc2cc(C(N)=O)c(OC)cc12` [ZIMLOVISERTIB], the % of inhibition in test [10] is 18.6%.
`COCC(=O)NC/C=C/c1ccc2ncnc(Nc3ccc(Oc4ccc(C)nc4)c(C)c3)c2c1` [CP-724714] showed a % of control in test [11] of 100%.
With `N#Cc1cccc(-c2c[nH]c3ncnc(N4CCOCC4)c23)c1`, the % of control in test [12] came out at 43%; in test [14], 100%. Also, the % of inhibition in test [13] is -2%.
In the case of `C=CC(=O)Nc1ccc(C(=O)Nc2[nH]nc3c2CN(C(=O)N[C@H](CN(C)C)c2ccccc2)C3(C)C)cc1`, in [15], the % of engagement is -3.5%.
